Patent US20110280940A1, “Di-Vanilloyl And Tri-Vanilloyl Derivatives For Use In Anti-Cancer Therapy” (priority 2008, published 2011)
Where two headings read alike, the source gives them in different places.

What was measured:
DYRK1A kinase = target: T1, DYRK1A kinase (Homo sapiens, UniProt Q13627); assay: Radiometric protein kinase assay (33 PanQinase), DYRK-1A; format: biochemical; conditions: for IC50: dose-response 0-100 μM, n=3, read-out: IC50: Concentration of drug needed in order to inhibit kinase activity by 50%, DYRK-1A; for inhibition at 57 µM: read-out: inhibition of DYRK-1A activity
T1 construct: made in house
Description: (§1) The kinase inhibition profile of DLT11 at 20 μM was determined using 250 protein kinases. […] A radiometric protein kinase assay (33 PanQinase®Activity Assay) was used for measuring the kinase activity of 250 protein kinases. All kinase assays were performed in 96-well flashPlates™ from Perkin Elmer (Boston, Mass., USA) in a 50 μl reaction volume. The reaction cocktail was pipetted in 4 steps in the following order: • 10 μl of non-radioactive ATP solution (in H2O) • 25 μl of assay buffer/[γ-33P]-ATP mixture • 5 μl of test sample in 10% DMSO • 10 μl of enzyme/substrate mixture
as §1, with “of DLT95-Cl” for “of DLT11”, “using 255” for “using 250”
The assay for all enzymes contained 60 mM HEPES-NaOH, pH 7.5, 3 mM MgCl2, 3 mM MnCl2, 3 μM Na-orthovanadate, 1.2 mM DTT, 50 μg/ml PEG20000, 1 μM ATP/[γ-33P]-ATP (approx. […] per well), protein kinase, and substrate. All PKC assays (except the PKC-mu and the PKC-nu assay) additionally contained 1 mM CaCl2, 4 mM EDTA, 5 μg/ml Phosphatidylserine and 1 μg/ml 1,2-Dioleyl-glycerol. The MYLK2, CAMK1D, CAMK2A, CAMK2B, CAMK2D, CAMK4, CAMKK2, DAPK2 and EEF2K assays additionally contained 1 μg/ml Calmodulin and 0.5 mM CaCl2. The PRKG1 and PRKG2 assays additionally contained 1 μM cGMP.
The protein kinases were expressed either in Sf9 insect cells or in E. coli as recombinant GST-fusion proteins or as His-tagged proteins. All kinases were produced from human cDNAs. Kinases were purified by affinity chromatography using either GSH-agarose (Sigma) or Ni-NTH-agarose (Qiagen). The purity of the protein kinases was examined by SDS-PAGE/coomassie staining. The identity of the protein kinases was checked by mass spectroscopy.
The reaction cocktails were incubated at 30° C. for 60 minutes. The reaction was stopped with 50 μl of 2% (v/v) H3PO4, plates were aspirated and washed two times with 200 μl 0.9% (w/v) NaCl. All assays were performed with a BeckmanCoulter Biomek 2000/SL robotic system.
Incorporation of ^33Pi (counting of “cpm”) was determined with a microplate scintillation counter (Microbeta, Wallac).
For each kinase, the median value of the cpm of three wells with complete reaction cocktails, but without kinase, was defined as “low control” […]. This value reflects unspecific binding of radioactivity to the plate in the absence of protein kinase but in the presence of the substrate. Additionally, for each kinase the median value of the cpm of three other wells with the complete reaction cocktail, but without any compound, was taken as the “high control”, i.e. full activity in the absence of any inhibitor […]. The difference between high and low control of was taken as 100% activity for each kinase. As part of the data evaluation the low control value of each kinase was subtracted from the high control value as well as from their corresponding “compound values”. The residual activity (in %) for each compound well was calculated by using the following formula: Res. Activity (%)=100×[(cpm of compound−low control)/(high control−low control)]

U373-MG glioma cell line = assay: Cellular imaging (quantitative videomicroscopy), global growth ratio, U373; format: cell-based; conditions: Homo sapiens, 72 h, read-out: Global Grow Ratio Treated/Ct (GGR T/Ct) determined by Video Quantitative microscopy, U373

SMILES | activity at 50 µM (U373-MG glioma cell line; 50 μM) | IC50 (DYRK1A kinase) | inhibition at 57 µM (DYRK1A kinase) | further results
COc1cc(C(=O)OCCCCCCOC(=O)c2ccc(O)c(OC)c2)ccc1O [DLT11, Hexane-1,6-diyl bis-(4-hydroxy-3-methoxybenzoate)] | 20% |  |  | inhibition of Dyrk1A (DYRK1A kinase; 20 μM (FIG. 3)): 5%
COc1cc(C(=O)OCCOC(=O)c2ccc(O)c(OC)c2)ccc1O [DLT1, Ethane-1,2-diyl bis-(4-hydroxy-3-methoxybenzoate)] | 30% |  |  | 
COc1cc(C(=O)O)ccc1O [vanillic acid, reference compound] |  | > 100 µM |  | 
COc1cc(C(=O)OCc2cc(COC(=O)c3ccc(O)c(OC)c3)cc(COC(=O)c3ccc(O)c(OC)c3)c2)ccc1O [DLT95, [3,5-bis[(4-hydroxy-3-methoxy-benzoyl)oxymethyl]phenyl]methyl 4-hydroxy-3-methoxy-benzoate] |  | > 100 µM |  | activity at 50 µM (U373-MG glioma cell line): 10%
O=C(OCc1cc(COC(=O)c2ccc(O)c(Cl)c2)cc(COC(=O)c2ccc(O)c(Cl)c2)c1)c1ccc(O)c(Cl)c1 [DLT95-Cl, [3,5-bis[(4-hydroxy-3-chloro-benzoyl)oxymethyl]phenyl]methyl 4-hydroxy-3-chloro-benzoate] |  | 3.2 µM | ≥ 50% | 
O=C(OCc1cc(COC(=O)c2ccc(O)c(F)c2)cc(COC(=O)c2ccc(O)c(F)c2)c1)c1ccc(O)c(F)c1 [DLT95-F, [3,5-bis[(4-hydroxy-3-fluoro-benzoyl)oxymethyl]phenyl]methyl 4-hydroxy-3-fluoro-benzoate] |  | 7.1 µM | ≥ 50% | 
